What is called Kd is the free concentration of one partner at which half of the binding sites on the other are occupied at equilibrium, for simple one-to-one binding. A lower Kd goes with a tighter complex.

For 1 compound, Kd results are on record in PMC9876986, “Direct cell extraction of membrane proteins for structure–function analysis” (Scientific Reports, 2023).

The target of the assay is T1, mouse PANX1 (pannexin1) (Mus musculus, UniProt Q9JIP4).
T1 construct: wildtype mouse PANX1, untagged, in His-tagged Salipro nanoparticles
T1 sequence (Q9JIP4 whole entry): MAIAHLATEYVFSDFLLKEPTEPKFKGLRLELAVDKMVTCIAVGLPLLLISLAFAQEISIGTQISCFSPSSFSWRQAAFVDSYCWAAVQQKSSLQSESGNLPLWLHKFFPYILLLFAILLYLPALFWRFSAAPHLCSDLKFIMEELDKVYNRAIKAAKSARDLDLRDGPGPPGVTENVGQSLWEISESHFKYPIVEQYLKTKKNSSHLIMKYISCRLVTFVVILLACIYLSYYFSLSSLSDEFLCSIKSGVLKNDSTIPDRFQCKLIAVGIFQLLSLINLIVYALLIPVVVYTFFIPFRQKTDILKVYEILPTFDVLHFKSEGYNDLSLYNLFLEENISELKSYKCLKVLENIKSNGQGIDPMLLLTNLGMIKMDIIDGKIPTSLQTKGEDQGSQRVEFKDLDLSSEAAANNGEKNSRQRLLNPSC
Description: SPR on immobilized His-Salipro-mPANX1, empty particles as reference. It is filed as binding.

`CC(=O)S[C@@H]1CC2=CC(=O)CC[C@]2(C)[C@H]2CC[C@@]3(C)[C@@H](CC[C@@]34CCC(=O)O4)[C@H]12` [spironolactone] yielded a Kd of 160 µM.
